Patent US7326790B2, “Diphenylisoxazole compounds and hydro isomers thereof” (Rigel Pharmaceuticals, Inc., priority 2003, dated 2008)

Tested on: HCV replicon (5-2 Luc replicon-comprising cells)
Experiment: HCV replicon assay (luciferase)
Format: cell-based
Settings: Hepatitis C virus; 5-2 Luc replicon cells, 24 hours with compound, luciferase activity
Excerpt: In one embodiment, the inhibitory activity of the compounds can be confirmed in a replicon assay that assesses the ability of a test compound to block or inhibit HCV replication in replicon cells. One example of a suitable replicon assay is the liver cell-line Huh 7-based replicon assay described in Lohmann et al., 1999, Science 285:110-113. A specific example of this replicon assay which utilizes luciferase translation is provided in the Examples Section. In one embodiment of this assay, the amount of test compound that yields a 50% reduction in translation as compared to a control cell (IC50) may be determined.
The inhibitory activity of certain exemplary compounds of the invention was confirmed using an HCV replicon assay. The HCV replicon can include such features as the HCV 5′ untranslated region including the HCV IRES, the HCV 3′ untranslated region, selected HCV genes encoding HCV polypeptides, selectable markers, and a reporter gene such as luciferase, GFP, etc. In the assay, actively dividing 5-2 Luc replicon-comprising cells (obtained from Ralf Bartenschlager; see Lohmann et al., 1999, Science 285:110-113) were seeded at a density of between about 5,000 and 7,500 cells/well onto 96 well plates (about 90 μl of cells per well) and incubated at 37° C. and 5% CO2 for 24 hours. Then, the test compound (in a volume of about 10 μl) was added to the wells at various concentrations and the cells were incubated for an additional 24 hours before luciferase assay. Briefly, the Bright-Glo reagent was diluted 1:1 with PBS and 100 μl of diluted reagent was added to each well. After 5 min of incubation at room temperature, luciferin emission was quantified with a luminometer. In this assay, the amount of test compound that yielded a 50% reduction in luciferase activity (IC50) was determined.

Compound | IC50 [µM]
O=C(Nc1cccc(-c2cc(-c3c(Cl)cccc3Cl)on2)c1)C(Cl)Cl [Compound 39, 2,2-Dichloro-N-[3-[5-(2,6-dichlorophenyl)-3-isoxazolyl]phenyl]Acetamide] | < 10
O=C(Nc1ccc(-c2cc(-c3ccccc3Cl)no2)cc1)C(Cl)Cl [Compound 55, 2,2-Dichloro-N-[4-[3-(2-chlorophenyl)-5-isoxazolyl]phenyl]Acetamide] | ≤ 10
O=C(Nc1ccc(-c2cc(-c3c(F)cccc3F)no2)cc1)C(Cl)Cl [Compound 59, 2,2-Dichloro-N-[4-[3-(2,6-difluorophenyl)-5-isoxazolyl]phenyl]Acetamide] | ≤ 10
